Measurements as given in patent publication US11805798B2, “Process for increasing the stability of a composition comprising polyunsaturated omega-3 fatty acids” (Evonik Operations GmbH, priority 2014, dated 2023).
Where “and” joins values, the source holds several entries; their conditions need not be identical. Equal values may be shown once.

How the values were obtained:
Type in all cases: physicochemical
[1] = Oligomer content by gel-chromatography (GPC), RI-detector; stability on storage
Method: Oligomeric PUFA constituents as well as their derivatives (collectively referred to as oligomer content) were quantified by gel-chromatographic means (GPC, styroldivinylbenzene-phase with tetrahydrofuran containing trifluoroacetic acid used as eluent). A refractive index (RI) detector was used for detection. Due to the fact that specific response factors of the constituents of the samples wore unknown, proportions were calculated based upon fractional proportions of the total area of chromatograms.
(§1) About 50 g each of the liquid ethyl esters EPA-OEt and DHA-OEt used in experiments 1 and 2 as well as of the liquid fatty acids EPA and DHA obtained in experiments 1 and 2 were filled into 250 ml Schott Duran bottles with an inner diameter of about 60 mm (filling height about 20 mm). About 50 g each of the solid lysine-salts EPA-Lys and DHA-Lys obtained in experiments 3 and 4 were filled into 250 ml polyethylene wide-neck bottles (55 mm*55 mm*80 mm) (filling height about 60 mm-70 mm).
(§2) All of the bottles were placed together with opened lids in a drying oven with an opened ventilation valve at 50° C. and stored under these conditions for 26 days. Results of the analyses performed subsequently as well as the results obtained for the sodium-salts which were stored at room temperature (cf. experiments 5 and 6) are summarized in the following table (Table 1).

[2] = Anisidine Value (AV), secondary oxidation products, Ph. Eur. 2.5.36; stability on storage
Method: An exemplary procedure for determining the Anisidine Value (AV) of a sample is performed as follows
The anisidine value is defined as 100 times the optical density measured in a 1 cm cell of a solution containing 1 g of the substance to be examined in 100 ml of a mixture of solvents and reagents according to the following method carry out the operations as rapidly as possible avoiding exposure to actinic light.
Test solution (a); Dissolve 0.500 g of the substance to be examined in trimethylpentane and dilute to 25.0 ml with the same solvent.
Test solution (b): To 5.0 ml of test solution (a) add 1.0 ml of a 2.5 g/t solution of p-anisidine in glacial acetic acid, shake and store protected from light.
Reference solution: To 5.0 ml of trimethylpentane add 1.0 ml of a 2.5 g/l solution of p-anisidine in glacial acetic acid, shake and store protected from light. Measure the absorbance of test solution (a) at the maximum at 350 nm using trimethylpentane as the compensation liquid. Measure the absorbance of test solution (b) at 350 nm exactly 10 min after its preparation, using the reference solution as the compensation liquid. Calculate the anisidine value (AV) from the expression. AV=(25*(1.2*A1−A2)/m • A1=absorbance of test solution (b) at 350 nm, • A2=absorbance of test solution (a) at 350 nm, • m=mass of the substance to be examined in test solution (a), in grams.
(§3) Primary oxidation products (hydroperoxides at double bonds) were quantified by determining the Peroxide Value (PV) according to Ph. Eur 2.5.5 (01/2008.20505). Secondary oxidation products (carbonyl compounds) were quantified by determining the Anisidine Value (AV) according to Ph, Eur. 2.5.36 (01/2008:20536).
as §1, §2

[3] = Peroxide Value (PV), primary oxidation products, Ph. Eur. 2.5.5; stability on storage
Method: An exemplary procedure for determining the Peroxide Value (PV) of a sample is performed as follows:
Reagents and solution: • 1. Acetic Acid—chloroform solution (7.2 ml Acetic Acid and 4.8 ml Chloroform). • 2. Saturated Potassium Iodide solution. Store in the dark. • 3. Sodium thiosulfate solution, 0.1N. Commercially available • 4. 1% Starch solution. Commercially available. • 5. Distilled or deionized water.
Conduct a blank determination of the reagents • 1. Weigh 2.00 (±0.02) g of sample into a 100 ml glass stoppered Erlenmeyer flask. Record weight to the nearest 0.01 g. • 2. By graduated cylinder, odd 12 ml of the acetic acid chloroform solution. • 3. Swirl the flask until the sample is completely dissolved (careful warming on a hot plate may be necessary). • 4. Using 1 ml Mohr pipette, add 0.2 ml of saturated potassium iodide solution • 5. Stopper the flask and swirl the contents of the flask for exactly one minute. • 6. Immediately add by graduated cylinder, 12 ml of either distilled or deionized water, stopper and stake vigorously to liberate the iodine from the chloroform layer. • 7. Fill the burette with 0.1 N sodium thiosulfate. • 8. If the starting color of the solution is deep red orange, titrate slowly with mixing until the color lightens. If the solution is initially a light amber color, go to step 9. • 9. Using a dispensing device: add 1 ml of starch solution as indicator. • 10. Titrate until the blue gray color disappears in the aqueous (upper layer). • 11. Accurately record the mis of titrant used to two decimal places.
Calculation: • S=titration of sample • B=titration of blank • Peroxide value=(S−B)*N thiosulfate*1000/weight of sample
as §3, §1, §2

[4] = Appearance after storage at room temperature; details: after storage for 3 months at room temperature; initially faintly beige powder
Method: The homogenous solution obtained was spray dried with a Büchi B190 laboratory-spray drier with an inlet temperature of 140° C. and an outlet temperature of about 80° C. 28.6 g of a faintly beige powder were obtained.
The homogenous solution obtained was spray dried with a Büchi B190 laboratory-spray drier writ an inlet temperature of 140° C. and an outlet temperature of about 80° C. 27.5 g of a faintly beige powder were obtained. […] Oligomer content was determined as 3.4 area-% (gel-chromatography. RI-detector).

[5] = t = 26 days, open bottles exposed to air, drying oven at 50° C.
[6] = after 3 months at room temperature

Compound: CC/C=C\C/C=C\C/C=C\C/C=C\C/C=C\CCCC(=O)O [EPA-OH, all-cis-5,8,11,14,17-eicosapentaenoic acid]
- Oligomer content [1, 5]: 20.6 area-%
- Anisidine Value (AV) ([2]; t = 0, before storage): 3.1 A/g
- Anisidine Value (AV) [2, 5]: 424 A/g
- Peroxide Value (PV) ([3]; t = 0, before storage): 8.6 mmol/kg
- Peroxide Value (PV) [3, 5]: 14.7 mmol/kg

Compound: Eicosapentaenoic Acid-Sodium Salt [EPA-Na]
- Appearance after storage [4]: grey-coloured appearance
- Oligomer content [1, 6]: 2.4 area-% and 2.4 ** area-%
- Anisidine Value (AV) [2, 6]: 41.1 A/g and 41.1 ** A/g
- Peroxide Value (PV) [3, 6]: 5.0 mmol/kg and 5.0 ** mmol/kg

Compound: CC/C=C\C/C=C\C/C=C\C/C=C\C/C=C\C/C=C\CCC(=O)OCC [DHA-OEt, docosahexaenoic acid ethyl ester]
- Oligomer content ([1]; t = 0, before storage): 0.4 area-%
- Oligomer content [1, 5]: 32.6 area-%
- Anisidine Value (AV) ([2]; t = 0, before storage): 16.0 A/g
- Anisidine Value (AV) [2, 5]: 1732 A/g
- Peroxide Value (PV) ([3]; t = 0, before storage): 26.1 mmol/kg
- Peroxide Value (PV) [3, 5]: 282.0 mmol/kg

Compound: Docosahexaenoic Acid-L-Lysine Salt [DHA-Lys]
- Oligomer content [1, 5]: 0.9 area-%
- Anisidine Value (AV) ([2]; t = 0, before storage): 3.1 A/g
- Anisidine Value (AV) [2, 5]: <1.0 A/g
- Peroxide Value (PV) ([3]; t = 0, before storage): 1.7 mmol/kg
- Peroxide Value (PV) [3, 5]: <1.0 mmol/kg

Compound: Docosahexaenoic Acid-Sodium Salt [DHA-Na]
- Appearance after storage [4]: grey-coloured appearance
- Oligomer content [1, 6]: 3.4 area-% and 3.4 ** area-%
- Anisidine Value (AV) [2, 6]: 77.9 A/g and 77.9 ** A/g
- Peroxide Value (PV) [3, 6]: 6.9 mmol/kg and 6.9 ** mmol/kg

Compound: Eicosapentaenoic Acid-L-Lysine [EPA-Lys]
- Oligomer content [1, 5]: 0.6 area-%
- Anisidine Value (AV) ([2]; t = 0, before storage): 2.1 A/g
- Anisidine Value (AV) [2, 5]: <1.0 A/g
- Peroxide Value (PV) ([3]; t = 0, before storage): 1.3 mmol/kg
- Peroxide Value (PV) [3, 5]: <1.0 mmol/kg
